This is an account of results in article PMC2829425 (Protein expression and purification, 2010).

The target in series [1] is T1, zebrafish monoamine oxidase (zMAO) (Danio rerio, UniProt Q6NSN2).
T1 sequence (Q6NSN2 1-522): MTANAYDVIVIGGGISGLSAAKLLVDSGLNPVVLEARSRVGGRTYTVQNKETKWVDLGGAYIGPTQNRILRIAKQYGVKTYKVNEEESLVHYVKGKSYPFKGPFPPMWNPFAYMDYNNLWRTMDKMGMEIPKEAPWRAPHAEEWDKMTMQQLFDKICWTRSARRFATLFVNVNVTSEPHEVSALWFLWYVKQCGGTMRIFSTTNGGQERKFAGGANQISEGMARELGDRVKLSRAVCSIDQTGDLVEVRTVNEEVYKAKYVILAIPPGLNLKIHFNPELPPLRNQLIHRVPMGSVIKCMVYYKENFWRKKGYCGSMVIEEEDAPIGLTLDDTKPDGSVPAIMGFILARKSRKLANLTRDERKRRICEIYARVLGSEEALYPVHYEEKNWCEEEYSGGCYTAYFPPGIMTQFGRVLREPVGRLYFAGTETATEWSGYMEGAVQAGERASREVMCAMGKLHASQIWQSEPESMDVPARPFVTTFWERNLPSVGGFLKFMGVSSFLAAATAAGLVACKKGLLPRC
In words: steady-state kinetics, benzaldehyde formation at […] nm. The following applies: read-out: Benzylamine. It is filed as biochemical.

For series [2], the target named is T1, zebrafish monoamine oxidase (zMAO). Kind of series: irreversible inhibition of purified enzyme. It is filed as biochemical.
Series [3] shares this target. In words: specific activity of purified enzyme, 4-hydroxyquinoline formation at […] nm. It is filed as biochemical.
Substrate in series [4]: NCCc1ccccc1
Kind of series: steady-state kinetics, Amplex red/peroxidase-coupled assay. It is filed as biochemical, Danio rerio. Particulars: covalent FAD ([…]α-S-cysteinylFAD); pH 7.4; 25.0 °C.

For `NCc1ccccc1` [Benzylamine], the Km in series [1] was determined as 82.2 ± 9 µM.
As for `C#CCN(C)CCCOc1ccc(Cl)cc1Cl` [Clorgyline], it took 64 µM to reach half-maximal inhibition in series [2] (IC50).
Same read-out and setting: then `C#CCN(C)C(C)Cc1ccccc1` (stereo not shown) [Deprenyl], with 6.5 µM.
In the case of `NCCC(=O)c1ccccc1N` [Kynuramine], the “specific activity of purified enzyme, 4-hydroxyquinoline formation at 316 nm” value in series [3] turned out to be 1.5 U/mg.

B1: zebrafish monoamine oxidase (zMAO) (Danio rerio) (protein)
chain: T1 sequence (Q6NSN2 1-522)
On to B1, for which, in series [4], the Km is 86 ± 13 µM, the kcat was 3.4 ± 0.145 s⁻¹ and the catalytic efficiency (kcat/Km) was found to be 39500 ± 3170 M⁻¹ s⁻¹.
